{
  "source": "paper PMC5818264",
  "about": "(Journal of the American Chemical Society, 2017)",
  "key": {"[1]": {"molecular_target": "T1, MelBSt (melibiose permease of Salmonella typhimurium) (Salmonella enterica, UniProt P30878)", "T1 sequence (P30878 whole entry)": "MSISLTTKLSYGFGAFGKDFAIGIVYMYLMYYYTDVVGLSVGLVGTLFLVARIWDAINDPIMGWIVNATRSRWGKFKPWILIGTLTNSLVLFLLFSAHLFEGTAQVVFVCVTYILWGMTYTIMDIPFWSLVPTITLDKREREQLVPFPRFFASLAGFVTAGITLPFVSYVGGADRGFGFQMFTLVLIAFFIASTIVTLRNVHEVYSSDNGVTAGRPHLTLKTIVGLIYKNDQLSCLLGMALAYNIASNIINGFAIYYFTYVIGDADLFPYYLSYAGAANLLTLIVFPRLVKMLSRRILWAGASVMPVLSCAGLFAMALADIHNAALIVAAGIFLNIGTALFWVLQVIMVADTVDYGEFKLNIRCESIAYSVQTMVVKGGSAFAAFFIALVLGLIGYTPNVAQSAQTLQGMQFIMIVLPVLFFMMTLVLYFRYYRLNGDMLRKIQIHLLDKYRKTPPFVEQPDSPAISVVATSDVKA", "assay": "Trp to dansyl FRET in detergent extract of membrane vesicles", "conditions": "[…] D^2G; DDM or D-NBM-C11; sugar binding site"}, "[2]": {"molecular_target": "T2, MelBEc (MelB homologue from E. coli) (Escherichia coli, UniProt P02921)", "T2 sequence (P02921 2-473)": "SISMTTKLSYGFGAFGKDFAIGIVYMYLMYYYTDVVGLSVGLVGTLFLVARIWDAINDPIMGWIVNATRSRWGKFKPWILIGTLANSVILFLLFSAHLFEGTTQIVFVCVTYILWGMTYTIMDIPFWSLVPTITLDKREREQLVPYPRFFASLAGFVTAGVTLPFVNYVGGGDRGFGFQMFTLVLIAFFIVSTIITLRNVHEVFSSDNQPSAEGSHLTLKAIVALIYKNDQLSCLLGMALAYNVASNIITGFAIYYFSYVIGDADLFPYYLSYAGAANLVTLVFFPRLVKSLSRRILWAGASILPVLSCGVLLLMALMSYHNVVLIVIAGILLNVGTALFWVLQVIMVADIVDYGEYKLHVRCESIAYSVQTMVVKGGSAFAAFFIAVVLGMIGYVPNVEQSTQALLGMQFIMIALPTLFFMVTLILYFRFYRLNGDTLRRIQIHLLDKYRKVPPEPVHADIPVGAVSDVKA", "assay": "Trp to dansyl FRET in detergent extract of membrane vesicles", "conditions": "[…] D^2G; D-NBM-C11; sugar binding site"}, "[3]": {"molecular_target": "LeuT (leucine transporter) (Aquifex aeolicus, UniProt O67854)", "assay": "scintillation proximity assay", "assay_type": "binding", "conditions": "labelled compound; DDM or NBMs at CMC + […] or […] wt %; room temperature"}, "[4]": {"molecular_target": "T1, MelBSt (melibiose permease of Salmonella typhimurium)", "assay": "reversal of Trp to D^2G FRET in detergent extract of membrane vesicles", "assay_type": "binding", "conditions": "saturating melibiose; […] D^2G; DDM or D-NBM-C11; competitive"}, "[5]": {"molecular_target": "T2, MelBEc (MelB homologue from E. coli)", "assay": "reversal of Trp to D^2G FRET in detergent extract of membrane vesicles", "assay_type": "binding", "conditions": "saturating melibiose; […] D^2G; D-NBM-C11; competitive"}},
  "data": [
    {"smiles": "CN(C)c1cccc2c(S(=O)(=O)NCCS[C@@H]3O[C@H](CO)[C@H](O)[C@H](O)[C@H]3O)cccc12", "note": "[2′-(N-dansyl) aminoalkyl-1-thio-β-D-galactopyranoside]", "values": [
      {"measurement": "Trp to dansyl FRET in detergent extract of membrane vesicles", "setting": "[1]", "value": "FRET from tryptophan residues (Trp) to a fluorescent ligand"},
      {"measurement": "Trp to dansyl FRET in detergent extract of membrane vesicles", "setting": "[2]", "value": "both MelB proteins gave remarkable levels of galactoside binding in D-NBM-C11"}
    ]},
    {"smiles": "CC(C)C[C@H](N)C(=O)O", "note": "[[^3H]-Leu]", "values": [
      {"measurement": "scintillation proximity assay", "setting": "[3]", "value": "ability of the transporter to bind radiolabeled leucine [^3H-Leu]"}
    ]},
    {"smiles": "OC[C@H]1O[C@H](OC[C@H]2OC(O)[C@H](O)[C@@H](O)[C@@H]2O)[C@H](O)[C@@H](O)[C@H]1O", "note": "(some centres unmarked) [melibiose]", "values": [
      {"measurement": "reversal of Trp to D^2G FRET in detergent extract of membrane vesicles", "setting": "[4]", "value": "MelBSt solubilized in DDM showed an effective melibiose reversal of FRET"},
      {"measurement": "reversal of Trp to D^2G FRET in detergent extract of membrane vesicles", "setting": "[5]", "value": "both MelB proteins gave remarkable levels of galactoside binding in D-NBM-C11"}
    ]}
  ]
}
